Measured values published in PMC3758310, “The Human Cathelicidin LL-37 Has Antiviral Activity against Respiratory Syncytial Virus” (PLoS ONE, 2013).

Tests used:
RSV-infected HEp-2 cells = test: MTT assay of viable metabolically active RSV-infected HEp-2 cells (cytopathic effects); assay type: cell-based; details: for viable HEp-2 cells surviving RSV infection at 5 days, pre-treatment condition: simultaneous RSV MOI = 0.005 and LL-37 0–50 µg/ml, scrambled LL-37 50 µg/ml or ribavirin 200 µM for 2 hours, 5 days without treatment; for protection of RSV-infected HEp-2 cells from cell death at 5 days, continuous treatment condition: treatment re-added after wash and present for 5 days, ribavirin 200 µM, LL-37 p<0.01, ribavirin p<0.001 vs untreated infected
Protocol: HEp-2 cells were treated with LL-37, a scrambled control LL-37 at 50 µg/ml or ribavirin (200 µM; Sigma Aldrich), in the presence or absence of simultaneous infection with RSV (MOI = 0.005). Cells were incubated for 2 hours at 37°C, washed and placed in fresh media. In some wells LL-37 or ribavirin was added again at this point (for “continuous treatment”). Cells were cultured at 37°C for 24 hours or 5 days, after which the number of viable metabolically active cells was assessed using an MTT assay (Sigma Aldrich) according to manufacturer's instructions (7.5 mg/ml, 37°C, 4 hours). Resulting formazan was dissolved in dimethylsulfoxide (Sigma Aldrich) and optical density was measured at 450 nm. Alternatively, cells simultaneously treated with or without LL-37 in presence or absence of RSV infection were allowed to dry for 10 minutes before they were fixed and permeabilised using ice-cold acetone/methanol (1∶1) for 10 minutes at 4°C. After a wash with PBS, cells were subjected to TUNEL assay using an In situ cell death kit (Roche Applied Science, UK) according to manufacturer's instructions. Cells were washed three times with PBS and 1 µg/ml DAPI was included in the second wash (3 minutes staining). Cells were examined by fluorescent microscopy, four representative images per well were captured using an EVOS fl imaging system (PEQLAB Ltd) and TUNEL positive and negative cells were quantified using ImageJ (http://rsbweb.nih.gov/ij/index.html).

HEp-2 cells [1] = test: MTT assay of uninfected HEp-2 cells; assay type: cell-based, human; details: LL-37 ≤50 µg/ml, 2 hours, washed, n = 3-4
Protocol: (§1) HEp-2 cells were treated with LL-37, a scrambled control LL-37 at 50 µg/ml or ribavirin (200 µM; Sigma Aldrich), in the presence or absence of simultaneous infection with RSV (MOI = 0.005). Cells were incubated for 2 hours at 37°C, washed and placed in fresh media. In some wells LL-37 or ribavirin was added again at this point (for “continuous treatment”). Cells were cultured at 37°C for 24 hours or 5 days, after which the number of viable metabolically active cells was assessed using an MTT assay (Sigma Aldrich) according to manufacturer's instructions (7.5 mg/ml, 37°C, 4 hours). Resulting formazan was dissolved in dimethylsulfoxide (Sigma Aldrich) and optical density was measured at 450 nm. Alternatively, cells simultaneously treated with or without LL-37 in presence or absence of RSV infection were allowed to dry for 10 minutes before they were fixed and permeabilised using ice-cold acetone/methanol (1∶1) for 10 minutes at 4°C. After a wash with PBS, cells were subjected to TUNEL assay using an In situ cell death kit (Roche Applied Science, UK) according to manufacturer's instructions. […] Cells were examined by fluorescent microscopy, four representative images per well were captured using an EVOS fl imaging system (PEQLAB Ltd) and TUNEL positive and negative cells were quantified using ImageJ (http://rsbweb.nih.gov/ij/index.html).

RSV viral particles = test: Direct viral inactivation assay; assay type: cell-based, RSV strain A2
Protocol: A modified viral inactivation assay was performed. 1 ml RSV (PFU = 2×10^3, equivalent to MOI = 0.05) was mixed with 25 µg/ml LL-37, followed by immediate 10-fold dilution in serum-free medium to reach sub-therapeutic concentrations of LL-37 (2.5 µg/ml) and RSV MOI = 0.005. 25 µg/ml scrambled LL-37 or PBS were used as negative controls. HEp-2 monolayers were infected with this virus/peptide mixture for 2 hours then washed, before cells were cultured in serum-free medium for 24 hours. Fixed monolayers were subjected to immunoplaque assay.

RSV [2] = test: Immunoplaque assay of RSV-infected 16HBE14o- cells at 24 hours; assay type: cell-based, RSV strain A2; details: RSV MOI = 0.005, simultaneous peptide and virus 2 hours, washed, n = 3-5
Protocol: (§2) HEp-2 cells (ATCC CCL-23), Vero cells (ATCC CCL-81) and 16HBE14o^- transformed human bronchial epithelial cells (a kind gift from Dieter Gruenert, University of California) were cultured in DMEM/F12 (Gibco/Life Technologies Ltd, Paisley, UK) or RPMI (Gibco) respectively, supplemented with 2 mM L-glutamine (PAA Laboratories, Yeovil, UK) and 10% FCS (Biosera, East Sussex, UK), at 37°C and 5% CO2. 16HBE14o^- cells were cultured on wells previously coated with a basement layer of collagen IV (5 µg/ml), fibronectin (10 µg/ml) and bovine serum albumin (100 µg/ml) (all Sigma Aldrich, Dorset, UK).
(§3) An immunoplaque assay (based on) was used to quantify RSV infected cells. […] Peptide treatments were therefore primarily evaluated at RSV MOI = 0.005, however higher MOIs (up to 1) were also tested and similar effects of peptides were observed (data not shown). […] Cells were stained using 3-amino-ethylcarbazole substrate (Invitrogen/Life technologies) according to manufacturer's instructions for 15 minutes, washed 3 times with PBS and infected RSV positive foci were quantified by light microscopy, counting 3–4 wells per condition. […] Quantification was performed using the ImageJ plugin Treshold_colour to measure the percentage of cells positive for RSV infection. 3 wells were assessed per condition, using 4 random fields of view captured per well. […]

RSV [3] = test: Spread of RSV infection in HEp-2 cultures over 48 and 72 hours (immunoplaque, image analysis); assay type: cell-based, RSV strain A2; details: washed, 48 or 72 hours, n = 3
Protocol: (§4) An immunoplaque assay (based on) was used to quantify RSV infected cells. Optimisation of the infection protocol was conducted using serial dilutions of RSV to assess the PFU of propagated virus stocks and establish an optimal MOI of 0.005 that allowed reliable counting of individual infected cells (approximately 100–250 per well) in a control infected culture at 24 hours. Peptide treatments were therefore primarily evaluated at RSV MOI = 0.005, however higher MOIs (up to 1) were also tested and similar effects of peptides were observed (data not shown). […] Cells were stained using 3-amino-ethylcarbazole substrate (Invitrogen/Life technologies) according to manufacturer's instructions for 15 minutes, washed 3 times with PBS and infected RSV positive foci were quantified by light microscopy, counting 3–4 wells per condition. […] Quantification was performed using the ImageJ plugin Treshold_colour to measure the percentage of cells positive for RSV infection. 3 wells were assessed per condition, using 4 random fields of view captured per well. To assess the production of infectious viral particles, supernatants were serially diluted and transferred to fresh HEp-2 monolayers, incubated for 2 hours at 37°C, washed, incubated for a further 24 hours and then assessed by immunoplaque assay.

HEp-2 cells [4] = test: TUNEL assay of cell death in HEp-2 cells; assay type: cell-based, human; details: in the presence or absence of RSV or LL-37, 24 hours after infection; data not shown
Protocol: as §1

RSV [5] = test: Production of new infectious viral particles (supernatant transfer to fresh HEp-2 cells, immunoplaque assay); assay type: cell-based, RSV strain A2
Protocol: as §4

RSV [6] = test: Immunoplaque assay of RSV-infected HEp-2 cells at 24 hours; assay type: cell-based, RSV strain A2; details: for reduction in number of infected cells: then 2 hours infection
Protocol: RSV strain A2 (VR-1540) was purchased from ATCC. RSV was propagated in HEp-2 cells by infecting 5×10^6 cells that were allowed to grow on confluent overnight in serum-free VP-SFM media (Gibco) for 2 hours with 0.1 plaque forming units (PFU) followed by removal of inoculum. Cells were then incubated for 24 hours in 10% FCS Gold (PAA Laboratories) supplemented VP-SFM. Cells were then incubated for a further 5 days in 2% FCS Gold supplemented VP-SFM, cells were harvested and supernatant was snap-frozen and stored at −80°C.
An immunoplaque assay (based on) was used to quantify RSV infected cells. Optimisation of the infection protocol was conducted using serial dilutions of RSV to assess the PFU of propagated virus stocks and establish an optimal MOI of 0.005 that allowed reliable counting of individual infected cells (approximately 100–250 per well) in a control infected culture at 24 hours. Peptide treatments were therefore primarily evaluated at RSV MOI = 0.005, however higher MOIs (up to 1) were also tested and similar effects of peptides were observed (data not shown). For experimental assessment of the antiviral effects of peptides, cells were seeded at 2×10^4 per well in 96-well plates and cultured overnight, then washed and infected, in fresh serum-free medium. After 2 hours, inoculum was removed and cells were cultured in fresh medium for 24, 48 or 72 hours before analysis. Peptides were added before, after or concomitantly with RSV infection as described for individual experiments. Monolayers were fixed in absolute methanol/2% hydrogen peroxide solution for 30 minutes and washed twice with PBS. Cells were exposed to monoclonal biotinylated anti-RSV antibody in 5% BSA/PBS for 1 hour (1∶200, AbD Serotec, Kidlington, UK), washed twice with PBS and were incubated with extravidin peroxidase in 5% BSA/PBS for 30 minutes (1∶500, Sigma Aldrich). Cells were stained using 3-amino-ethylcarbazole substrate (Invitrogen/Life technologies) according to manufacturer's instructions for 15 minutes, washed 3 times with PBS and infected RSV positive foci were quantified by light microscopy, counting 3–4 wells per condition. For later timepoint analysis (48 and 72 hours post infection with RSV MOI = 0.0005), fixed and stained monolayers were examined by light microscopy and images were captured using an EVOS fl imaging system (PEQLAB Ltd, UK). Quantification was performed using the ImageJ plugin Treshold_colour to measure the percentage of cells positive for RSV infection. 3 wells were assessed per condition, using 4 random fields of view captured per well. To assess the production of infectious viral particles, supernatants were serially diluted and transferred to fresh HEp-2 monolayers, incubated for 2 hours at 37°C, washed, incubated for a further 24 hours and then assessed by immunoplaque assay.

RSV [7] = test: Immunoplaque assay of RSV-infected Vero cells (type I interferon deficient) at 24 hours; assay type: cell-based, RSV strain A2; details: 25 µg/ml simultaneous with RSV MOI = 0.005 for 2 hours, p<0.001, n = 3-5
Protocol: as §2, §3

## NC(=O)c1ncn([C@@H]2O[C@H](CO)[C@@H](O)[C@H]2O)n1 [ribavirin, reference compound]
RSV-infected HEp-2 cells; washed, n = 3-4
  viable HEp-2 cells surviving RSV infection at 5 days, pre-treatment condition: Neither scrambled LL-37 nor the antiviral ribavirin had any direct effect
RSV-infected HEp-2 cells
  protection of RSV-infected HEp-2 cells from cell death at 5 days, continuous treatment condition: significant protection of epithelial cells from cell death

## LL-37: active form of the sole human cathelicidin hCAP-18; cationic host defence peptide
HEp-2 cells [1]
  number of metabolically active uninfected HEp-2 cells after 5 days: did not affect the number of metabolically active HEp-2 cells
RSV viral particles; RSV MOI = 0.005 pre-mixed with 2.5 µg/ml LL-37 before immediate use, HEp-2, 24 hours
  antiviral effect of virus and cell exposure to 2.5 µg/ml LL-37: no significant effects
RSV viral particles; RSV MOI = 0.05 pre-mixed with 25 µg/ml, immediate 1:10 dilution, HEp-2 infected 2 hours, 24 hours, immunoplaque, n≥3
  antiviral effect of virus exposure to 25 µg/ml peptide followed by 1 in 10 dilution (cell exposure 2.5 µg/ml): significant antiviral effects
RSV [2]
  antiviral effect (number of RSV-infected cells relative to untreated infected cells): The same effect was observed
RSV-infected HEp-2 cells; LL-37 ≤50 µg/ml, RSV MOI = 0.005, 2 hours, washed, 24 hours, OD 450 nm, n = 3-4
  number of metabolically active RSV-infected HEp-2 cells at 24 hours: did not have any substantial effect
RSV-infected HEp-2 cells; washed, n = 3-4
  viable HEp-2 cells surviving RSV infection at 5 days, pre-treatment condition: significantly more viable HEp-2 cells surviving RSV infection in a dose-dependent manner
RSV-infected HEp-2 cells
  protection of RSV-infected HEp-2 cells from cell death at 5 days, continuous treatment condition: significant protection of epithelial cells from cell death
RSV [3]; HEp-2, RSV MOI = 0.0005 2 hours, 25 µg/ml LL-37 1 hour
  spread of infection beyond initially infected cells, LL-37 added after RSV infection (virus first): spread of infection beyond the cells initially infected was minimised
RSV [3]; HEp-2, RSV MOI = 0.0005, 25 µg/ml peptide 2 hours
  spread of infection beyond initially infected cells, peptide added simultaneously with RSV: spread of infection beyond the cells initially infected was minimised
HEp-2 cells [4]
  TUNEL positive HEp-2 cells: 0.5–1.5%
RSV [5]; 25 µg/ml LL-37 replaced after wash, 3 days, p<0.05
  infectivity of supernatant at day 3 with LL-37 remaining in the media (continuous): reducing infectivity up to day 3
RSV [5]; HEp-2, RSV with 25 µg/ml peptide 2 hours, washed, fresh media with or without peptide, supernatant infectivity on fresh HEp-2, p<0.001, n = 3
  production of new infectious viral particles: very substantially, fewer new infectious viral particles
RSV [6]; 25 µg/ml LL-37, in vitro
  decrease in the number of initially infected cells: approximately 1 log
RSV [6]; 25 µg/ml simultaneous with RSV MOI = 0.005 for 2 hours, 24 hours, p<0.001, n = 3-5
  antiviral activity against RSV in HEp-2 cells: identical significant antiviral activity
RSV [6]; HEp-2, RSV MOI = 0.005, simultaneous peptide and virus 2 hours, washed, 24 hours at 37°C, p<0.05 vs virus alone, mean of n = 3-5
  LL-37 concentration giving significant, concentration-dependent reduction in infectivity (number of RSV-infected cells): ≥ 10 µg/mL
RSV [6]; HEp-2, RSV MOI = 0.005 for 2 hours, washed, then 1 hour LL-37, infected cells at 24 hours
  antiviral effect, LL-37 treatment delayed until 2 hours after viral infection (Virus first): loss of the antiviral effect
RSV [6]; HEp-2, RSV preincubated with 25 µg/ml LL-37 for 1 hour at 4°C, 24 hours, p<0.001
  reduction in number of infected cells: approximately 1 log
RSV [6]; HEp-2, RSV preincubated with 25 µg/ml LL-37 for 1 hour at 37°C, 24 hours, p<0.01
  reduction in number of infected cells: approximately 1 log
RSV [6]; HEp-2, simultaneous RSV MOI = 0.005 and peptide at 1, 10 and 25 µg/ml for 2 hours, washed, 24 hours, n = 3
  antiviral activity of full length and 22-mer partial peptides (number of infected cells): significant antiviral activity
RSV [6]; HEp-2 pre-treated 25 µg/ml LL-37 1 hour, washed, RSV MOI = 0.005 at 1 or 3 hours, p<0.001, n≥3
  protection against RSV infection when infection delayed up to 3 hours after LL-37 treatment and cell washing: significant protection against RSV infection
RSV [6]; HEp-2 pre-treated 25 µg/ml LL-37 1 hour, washed, RSV MOI = 0.005 at 24 hours
  protection against RSV infection when infection delayed 24 hours after LL-37 treatment and cell washing: no protection evident
RSV [6]; HEp-2 treated with LL-37 1 hour, washed, 2 hour RSV infection MOI = 0.005, 24 hours, p<0.001
  RSV infection after pre-incubation of cells with LL-37 and washing (LL-37 first): significantly less RSV infection
RSV [7]
  antiviral activity against RSV in Vero cells: identical significant antiviral activity
